# Test results as given in patent publication US9388149B2, “Disubstituted 3,4-diamino-3-cyclobutene-1,2-dione compounds for use in the treatment of chemokine-mediated diseases” (GALDERMA RESEARCH & DEVELOPMENT, priority 2011, dated 2016).
# What was measured:
# CXCR2 receptor = CXCR2 receptor (Homo sapiens (Human), UniProt P25025); experiment: β-arrestin recruitment test, PathHunter HEK293-CXCR2 cells stimulated with CXCL8; type: cell-based; conditions: inhibition of CXCL8 (10 nM) induced β-arrestin 2 recruitment; *9999 signifies not active
# CXCR2 receptor, sequence (P25025 whole entry): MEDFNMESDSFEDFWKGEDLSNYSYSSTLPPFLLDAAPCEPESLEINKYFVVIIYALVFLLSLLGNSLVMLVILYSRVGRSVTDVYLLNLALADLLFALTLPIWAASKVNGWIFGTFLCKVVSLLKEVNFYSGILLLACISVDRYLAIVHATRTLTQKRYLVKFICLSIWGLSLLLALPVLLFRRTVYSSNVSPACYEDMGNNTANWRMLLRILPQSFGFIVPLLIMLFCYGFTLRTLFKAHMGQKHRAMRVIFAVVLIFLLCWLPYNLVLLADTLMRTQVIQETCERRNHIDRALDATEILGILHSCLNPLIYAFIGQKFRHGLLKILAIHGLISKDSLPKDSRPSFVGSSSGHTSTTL
# Procedure: (§1) The in vitro affinity of the compounds of the present invention for the CXCR1 and CXCR2 receptors was determined on a functional test of the β-arrestin recruitment after receptor activation type.
# (§2) β-Arrestin recruitment test: “PathHunter HEK293-CXCR2” or “U2OS hCXCR1 β-arrestin” cells (DiscoveRx Corporation) were seeded overnight at 10 000 cells/well (384-well format) in 20 μl of Opti MEM I medium. A preincubation with the antagonist or the vehicle for 30 min at 37° C. and 5% CO2 was followed by 60 minutes of stimulation with CXCL8 at 37° C. and 5% CO2. The cells were then placed at ambient temperature for 30 minutes. The PathHunter detection reagent (DiscoveRx Corporation) was added. […] The data were analyzed by means of a non-linear curve procedure using the XLFit4 exploitation software (IDBS) and the IC50 values were determined.
# CXCR1 receptor = CXCR1 receptor (Homo sapiens (Human), UniProt P25024); experiment: β-arrestin recruitment test, U2OS hCXCR1 β-arrestin cells stimulated with CXCL8; type: cell-based; conditions: inhibition of CXCL8 (10 nM) induced β-arrestin 2 recruitment; *9999 signifies not active
# CXCR1 receptor, sequence (P25024 whole entry): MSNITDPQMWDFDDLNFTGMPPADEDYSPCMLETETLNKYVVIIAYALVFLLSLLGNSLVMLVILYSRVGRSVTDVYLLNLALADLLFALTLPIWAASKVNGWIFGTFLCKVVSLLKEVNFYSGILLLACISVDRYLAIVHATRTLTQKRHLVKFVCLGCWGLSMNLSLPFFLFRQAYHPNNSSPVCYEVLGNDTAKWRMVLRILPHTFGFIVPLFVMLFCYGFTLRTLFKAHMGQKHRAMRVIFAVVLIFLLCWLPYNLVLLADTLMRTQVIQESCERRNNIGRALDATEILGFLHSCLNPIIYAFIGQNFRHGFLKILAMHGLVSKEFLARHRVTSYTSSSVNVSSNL
# Procedure: as §1, §2
# [1] = Metabolic stabilities in hepatocytes; type: in vitro ADME; conditions: compound 1 μM, sampling up to 24 hours; for half-life at 1 μM: human, hepatocytes, read-out: Half-life time; for Half-life time: human hepatocytes
# Procedure: The human hepatocytes were supplied by Biopredic in 24-well plates.
# The samples of incubation medium after addition of the test compound were taken at times t=0, 1, 2, 4, 6 and 24 hours.
# [2] = Metabolic stabilities in hepatic microsomes; conditions: hepatic microsomes 0.5 mg/ml protein, compound 1 μM, sampling up to 60 minutes
# Procedure: Hepatic microsomes (Becton Dickinson) were incubated at a protein concentration of 0.5 mg/ml in the reaction medium.
# The reaction medium of the microsomes was composed of phosphate buffer, pH: 7.4 at 100 mM, of MgCl2 at 100 mM (50/50), of an ATP-generating system composed of a mixture of nicotinamide adenine diphosphate (NADP), of glucose-6-phosphate (G6P) at 1 mg/ml and of glucose-6-phosphate dehydrogenase (G6PDH) at 4 U/ml. The compounds were tested at 1 μM (0.1% DMSO).
# The samples of incubation medium after addition of the microsomes were taken at times 5, 10, 15, 30 and 60 minutes. At each time, the metabolic reaction was stopped by adding methanol (1 volume incubation medium/3 volumes of methanol). The disappearance of the parent product was measured by LC/MS/MS analysis. The time for which 50% of parent product disappeared (T1/2) was calculated from the kinetics of disappearance of the parent product as a function of time.
# CCR4 = CCR4 (Homo sapiens (Human), UniProt P51679); experiment: Calcium flux on Chem-1 cells expressing the chemokine receptor (FLIPR TETRA), antagonist mode
# CCR4, sequence (P51679 whole entry): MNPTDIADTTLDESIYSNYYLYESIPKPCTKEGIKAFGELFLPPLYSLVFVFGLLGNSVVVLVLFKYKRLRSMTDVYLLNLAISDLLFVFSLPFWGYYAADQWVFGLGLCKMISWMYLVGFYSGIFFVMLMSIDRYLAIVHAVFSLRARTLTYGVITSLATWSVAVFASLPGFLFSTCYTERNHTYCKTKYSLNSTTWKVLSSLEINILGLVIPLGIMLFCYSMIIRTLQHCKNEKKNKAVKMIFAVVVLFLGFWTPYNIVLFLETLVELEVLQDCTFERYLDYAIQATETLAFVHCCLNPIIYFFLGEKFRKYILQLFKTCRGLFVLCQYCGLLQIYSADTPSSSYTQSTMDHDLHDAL
# Procedure: (§3) Measurement of calcium flux on cells: The experiments were carried out on the FLIPR TETRA® platform from Molecular Devices.
# (§4) Each cell line expressing a chemokine receptor was established on the basis of the Chem-1 cell stably expressing the recombinant form of the chemokine receptor and also an associated G protein, with the aim of coupling the receptor to the calcium signalling pathway.
# (§5) 21 receptors belonging to the chemokine receptor family (CCRs and CXCRs) were analyzed.
# CXCR3 = CXCR3 (Homo sapiens (Human), UniProt P49682); experiment: as above; conditions: IC50 CXCR3, antagonist activity, reference agonist at AC80
# CXCR3, sequence (P49682 whole entry): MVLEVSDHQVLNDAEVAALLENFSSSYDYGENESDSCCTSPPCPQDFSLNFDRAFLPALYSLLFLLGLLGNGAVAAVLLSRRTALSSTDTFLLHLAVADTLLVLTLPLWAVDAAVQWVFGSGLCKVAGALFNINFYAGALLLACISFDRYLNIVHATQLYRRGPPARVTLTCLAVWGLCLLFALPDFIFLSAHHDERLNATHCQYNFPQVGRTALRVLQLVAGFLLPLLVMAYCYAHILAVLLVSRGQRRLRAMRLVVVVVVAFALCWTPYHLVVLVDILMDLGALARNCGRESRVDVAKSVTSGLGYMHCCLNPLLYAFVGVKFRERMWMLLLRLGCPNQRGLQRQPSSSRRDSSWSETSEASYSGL
# Procedure: as §3, §4, §5
Molecule,IC50 (CXCR2 receptor) [nM],IC50 (CXCR1 receptor) [nM],other results
"Cc1ccc(C(Nc2c(Nc3cccc(C(=O)N(C)C)c3O)c(=O)c2=O)C2(C)CCCO2)o1 (single isomer, unassigned) [Example 1 (diastereoisomer 1), 2-hydroxy-N,N-dimethyl-3-(2-{[(5-methylfuran-2-yl)-(2-methyltetrahydrofuran-2-yl)methyl]amino}-3,4-dioxocyclobut-1-enylamino)benzamide]",89,,
"Cc1ccc(C(Nc2c(Nc3cccc(C(=O)N(C)C)c3O)c(=O)c2=O)[C@H]2CCCO2)o1 (stereo in doubt) [Example 11, 2-hydroxy-N,N-dimethyl-3-(2-{[(R)-(5-methylfuran-2-yl)tetrahydrofuran-2-ylmethyl]amino}-3,4-dioxocyclobut-1-enylamino)benzamide]",176,1320,
"Cc1ccc(C(Nc2c(Nc3cccc(C(=O)N(C)C)c3O)c(=O)c2=O)C2(C)CCCO2)o1 (single isomer, unassigned) [Example 1 (Enantiomer 1 of diastereoisomer 2), 2-Hydroxy-N,N-dimethyl-3-(2-{[(5-methylfuran-2-yl)-(2-methyltetrahydrofuran-2-yl)methyl]amino}-3,4-dioxo-cyclobut-1-enylamino)benzamide]",10000,,
"COC(=O)[C@H]1CCCN1C(=O)c1cccc(Nc2c(NC(c3ccc(C)o3)C3CCCS3)c(=O)c2=O)c1O (single isomer, unassigned) [Example 20]",,,half-life at 1 μM [1]: 211 min; Half-life time [2]: 17 min; IC50 (CCR4): 7.2 nM; IC50 (CXCR3): 180 nM
"Cc1ccc(C(Nc2c(Nc3cccc(C(=O)N(C)C)c3O)c(=O)c2=O)C2CCCS2)o1 (single isomer, unassigned) [Example 2 (Enantiomer 2 of diastereoisomer 1), 2-Hydroxy-N,N-dimethyl-3-(2-{[(5-methylfuran-2-yl)-(tetrahydrothiophen-2-yl)methyl]amino}-3,4-dioxo-cyclobut-1-enylamino)benzamide]",56,,
"Cc1ccc(C(Nc2c(Nc3cccc(C(=O)N4CCC[C@H]4C(=O)OC(C)C)c3F)c(=O)c2=O)C2CCCS2)o1 (stereo partly drawn) [Example 4, Isopropyl (S)-1-[2-fluoro-3-(2-{[(5-methylfuran-2-yl)-(tetrahydrothiophen-2-yl)methyl]amino}-3,4-dioxocyclobut-1-enylamino)benzoyl]pyrrolidine-2-carboxylate]",109,1890,
"Cc1ccc(C(Nc2c(Nc3ccc(Cl)c(S(=O)(=O)N4CCN(C)CC4)c3O)c(=O)c2=O)C2CCCS2)o1 (single isomer, unassigned; (-)) [Example 22, (−)-3-[4-chloro-2-hydroxy-3-(4-methylpiperazine-1-sulfonyl)phenylamino]-4-{[(5-methylfuran-2-yl)-(tetrahydrothiophen-2-yl)methyl]amino}cyclobut-3-ene-1,2-dione]",17,30,"half-life at 1 μM [1]: 49 min; half-life at 1 μM ([2]; hepatic microsomes, pH 7.4, Half-life time (min)): 7 min; IC50 (CCR4): 9.4 nM; IC50 (CXCR3): 150 nM"
"Cc1ccc(C(Nc2c(Nc3cccc(C(=O)N(C)C)c3O)c(=O)c2=O)C2CCCS2)o1 (single isomer, unassigned) [Example 2 (Enantiomer 1 of diastereoisomer 1), 2-Hydroxy-N,N-dimethyl-3-(2-{[(5-methylfuran-2-yl)-(tetrahydrothiophen-2-yl)methyl]amino}-3,4-dioxo-cyclobut-1-enylamino)benzamide]",273,,
"CCOC(=O)[C@@H]1CCCN1C(=O)c1cccc(Nc2c(NC(c3ccc(C)o3)C3CCCS3)c(=O)c2=O)c1F (stereo partly drawn) [Example 5, Ethyl (S)-1-[2-fluoro-3-(2-{[(5-methylfuran-2-yl)-(tetrahydrothiophen-2-yl)methyl]amino}-3,4-dioxocyclobut-1-enylamino)benzoyl]pyrrolidine-2-carboxylate]",106,711,
"Cc1ccc(C(Nc2c(Nc3cccc(C(=O)N(C)C)c3O)c(=O)c2=O)[C@@H]2COC(C)(C)O2)o1 (single isomer, unassigned) [Example 14 (Diastereoisomer 1)]",10000,10000,
"COC(=O)CN(C)C(=O)c1cccc(Nc2c(NC(c3ccc(C)o3)C3CCCS3)c(=O)c2=O)c1O (single isomer, unassigned) [9 (Diastereoisomer 1), methyl {[2-hydroxy-3-(2-{[(5-methylfuran-2-yl)-(tetrahydrothiophen-2-yl)methyl]amino}-3,4-dioxocyclobut-1-enylamino)benzoyl]methylamino}acetate]",153,580,
"Cc1ccc(C(Nc2c(Nc3cccc(C(=O)N(C)C)c3O)c(=O)c2=O)[C@@H]2COC(C)(C)O2)o1 (single isomer, unassigned) [Example 14 (Diastereoisomer 2)]",1250,10000,
"Cc1ccc(C(Nc2c(Nc3cccc(C(=O)N(C)CC(F)(F)F)c3O)c(=O)c2=O)C2CCCS2)o1 (single isomer, unassigned) [Example 8 (Diastereoisomer 1)]",115,508,
"CN(C)C(=O)c1cccc(Nc2c(NC(c3ccccc3)C3CCCO3)c(=O)c2=O)c1O (stereo not drawn) [Example 13, 3-(3,4-dioxo-2-{[phenyl(tetrahydrofuran-2-yl)methyl]amino}cyclobut-1-enylamino)-2-hydroxy-N,N-dimethylbenzamide]",170,1150,
"COC(=O)[C@H]1CCCN1C(=O)c1cccc(Nc2c(NC(c3ccc(C)o3)C3CCCS3)c(=O)c2=O)c1O (single isomer, unassigned) [Example 6]",,,Half-life time [2]: 5 min; IC50 (CXCR3): 140 nM
"Cc1ccc(C(Nc2c(Nc3cccc(C(=O)N(C)C)c3O)c(=O)c2=O)C2CCCS2)o1 (single isomer, unassigned) [Example 2 (diastereoisomer 1), 2-Hydroxy-N,N-dimethyl-3-(2-{[(5-methylfuran-2-yl)-(tetrahydrothiophen-2-yl)methyl]amino}-3,4-dioxo-cyclobut-1-enylamino)benzamide]",135,,Half-life time [1]: 106 min; Half-life time [2]: 9 min
"COC(=O)CN(C)C(=O)c1cccc(Nc2c(NC(c3ccc(C)o3)C3CCCS3)c(=O)c2=O)c1O (single isomer, unassigned) [Example 9 (Diastereoisomer 2), methyl {[2-hydroxy-3-(2-{[(5-methylfuran-2-yl)-(tetrahydrothiophen-2-yl)methyl]amino}-3,4-dioxocyclobut-1-enylamino)benzoyl]methylamino}acetate]",80,89,
"Cc1ccc(C(Nc2c(Nc3cccn(C)c3=O)c(=O)c2=O)C2CCCS2)o1 (stereo not drawn) [Example 17, 3-{[(5-methylfuran-2-yl)-(tetrahydrothiophen-2-yl)methyl]amino}-4-(1-methyl-2-oxo-1,2-dihydropyridin-3-ylamino)cyclobut-3-ene-1,2-dione]",44,384,
"Methyl (S)-1[2-fluoro-3-(2-{[(R,S)-(5-methylfuran-2-yl)((S,R)-tetrahydrothiophen-2-yl)methyl]amino}-3,4-dioxocyclobut-1-enylamino)benzoyl]pyrrolidine-2-carboxylate [Example 3 (pair of enantiomers 1 and 2)]",221,812,Half-life time [1]: 141 min; Half-life time [2]: 3 min
"Cc1ccc(C(Nc2c(Nc3cccc(C(=O)N(C)CC(F)(F)F)c3O)c(=O)c2=O)C2CCCS2)o1 (single isomer, unassigned) [Example 8 (Diastereoisomer 2)]",47,85,
"Cc1ccc(C(Nc2c(Nc3cccc(C(=O)N(C)C)c3O)c(=O)c2=O)[C@@H]2CCCO2)o1 (stereo in doubt) [Example 12, 2-hydroxy-N,N-dimethyl-3-(2-{[(S)-(5-methylfuran-2-yl)tetrahydrofuran-2-ylmethyl]amino}-3,4-dioxocyclobut-1-enylamino)benzamide]",83,483,
"Cc1ccc(C(Nc2c(Nc3cccc(C(=O)N(C)C)c3O)c(=O)c2=O)C2CCCS2)o1 (single isomer, unassigned) [Example 2 (Enantiomer 2 of diastereoisomer 2), 2-Hydroxy-N,N-dimethyl-3-(2-{[(5-methylfuran-2-yl)-(tetrahydrothiophen-2-yl)methyl]amino}-3,4-dioxo-cyclobut-1-enylamino)benzamide]",134,,Half-life time [1]: 229 min
"Cc1ccc(C(Nc2c(Nc3cccc(C(=O)N(C)C)c3O)c(=O)c2=O)C2CCCS2)o1 (single isomer, unassigned) [Example 2 (Enantiomer 1 of diastereoisomer 2), 2-Hydroxy-N,N-dimethyl-3-(2-{[(5-methylfuran-2-yl)-(tetrahydrothiophen-2-yl)methyl]amino}-3,4-dioxo-cyclobut-1-enylamino)benzamide]",15,,Half-life time [1]: 213 min
